Patent US4450269A, “Mono-5-substituted-3-chloro-4H-1,2,6-thiadiazin-4-one antifungal agents” (FMC Corporation, priority 1980, dated 1984)

Tested on: Pyricularia oryzae
Experiment: microbe, parasite or virus in culture
Format: cell-based
Conditions: Pyricularia oryzae, 72 h; for inhibition at 5 ppm: read-out: Percent Fungus Growth Inhibition, PO, 5 ppm, 72 hours; for inhibition at 10 ppm: read-out: Percent Fungus Growth Inhibition, PO, 10 ppm, 72 hours; for inhibition at 20 ppm: read-out: Percent Fungus Growth Inhibition, PO, 20 ppm, 72 hours; for inhibition at 40 ppm: read-out: Percent Fungus Growth Inhibition, PO, 40 ppm, 72 hours

| Structure (SMILES) | inhibition at 5 ppm | inhibition at 10 ppm | inhibition at 20 ppm | inhibition at 40 ppm |
| --- | --- | --- | --- | --- |
| Cc1ccc(Oc2nsnc(Cl)c2=O)c(Br)c1 [Compound 57, 3-[(2-bromo-4-methyl)-phenoxy]-5-chloro-4H--1,2,6-thiadiazin-4-one] | 46% | 61% | 71% | 61% |
| CC(=O)Nc1ccc(Oc2nsnc(Cl)c2=O)cc1 [Compound 8, 5-(4-acetylaminophenoxy)-3-chloro-4H--1,2,6-thiadiazin-4-one] | 23% | 0% | 48% | 74% |
| CSc1ccc(Oc2nsnc(Cl)c2=O)cc1 [Compound 39, 3-chloro-5-[(4-methylthio)phenoxy]-4H-1,2,6,-thiadiazin-4-one] | 42% | 61% | 61% | 61% |
| O=C(O)c1ccc(Oc2nsnc(Cl)c2=O)cc1 [Compound 50, 3-(4-carboxyphenoxy)-5-chloro-4H--1,2,6-thiadiazin-4-one] | 11% | 0% | 11% | 100% |
| CNC(=O)Nc1ccc(Oc2nsnc(Cl)c2=O)cc1 [Compound 28, 3-chloro-5-[4-(3-methylureido)-phenoxy]-4H--1,2,6-thiadiazin-4-one] | 24% | 24% | 52% | 90% |
| CC(=O)Nc1cccc(Oc2nsnc(Cl)c2=O)c1 [Compound 42, 3-[(3-N--acetylamino)-phenoxy]-5-chloro-4H--1,2,6-thiadiazin-4-one] | 7% | 11% | 32% | 68% |
| O=c1c(Cl)nsnc1Oc1c(Cl)cccc1Cl [Compound 18, 3-chloro-5-(2,6-dichlorophenoxy)-4H--1,2,6-thiadiazin-4-one] | 26% | 32% | 48% | 48% |
| Cc1cc(Cl)c(Oc2nsnc(Cl)c2=O)cc1C [Compound 58, 3-chloro-5-[(2-chloro-4,5-dimethyl)phenoxy]-4H--1,2,6-thiadiazin-4-one] | 43% | 54% | 29% | 50% |
| O=c1c(Cl)nsnc1Oc1cccc(Cl)c1Cl [Compound 19, 3-chloro-5-(2,3-dichlorophenoxy)-4H--1,2,6-thiadiazin-4-one] | 39% | 48% | 68% | 87% |
| O=c1c(Cl)nsnc1Oc1ccc(Cl)cc1 [Compound 12, 3-chloro-5-(4-chlorophenoxy)-4H--1,2,6-thiadiazin-4-one] | 19% | 30% | 59% | 85% |
| O=c1c(Cl)nsnc1Oc1ccc(O)cc1 [Compound 35, 3-chloro-5-(4-hydroxyphenoxy)-4H-1,2,6-thiadiazin-4-one] | 23% | 38% | 100% | 100% |
| O=C(O)Cc1ccccc1Oc1nsnc(Cl)c1=O [Compound 45, 3-(2-carboxymethylphenoxy)-5-chloro-4H--1,2,6-thiadiazin-4-one] | 0% | 0% | 0% | 11% |
| CCCCOc1ccc(Oc2nsnc(Cl)c2=O)cc1 [Compound 6, 3-chloro-5-(4-n-butoxyphenoxy)-4H--1,2,6-thiadiazin-4-one] | 15% | 0% | 19% | 19% |
| N#Cc1ccc(Oc2nsnc(Cl)c2=O)cc1 [Compound 10, 3-chloro-5-(4-cyanophenoxy)-4H--1,2,6-thiadiazin-4-one] | 19% | 19% | 58% | 77% |
| Cc1cc(Oc2nsnc(Cl)c2=O)ccc1Cl [Compound 54, 3-chloro-5-(4-chloro-3-methylphenoxy)-4H--1,2,6-thiadiazin-4-one] | 50% | 53% | 56% | 65% |
| C[S+]([O-])c1ccc(Oc2nsnc(Cl)c2=O)cc1 (stereo not drawn) [Compound 40, 3-chloro-5-[(4-methylsulfinyl)phenoxy]-4H-1,2,6,-thiadiazin-4-one] | 33% | 47% | 42% | 89% |
| O=c1c(Cl)nsnc1Oc1ccc(Cl)cc1Cl [Compound 17, 3-chloro-5-(2,4-dichlorophenoxy)-4H--1,2,6-thiadiazin-4-one] | 29% | 48% | 29% | 71% |
| O=c1c(Cl)nsnc1Oc1cc(Cl)cc(Cl)c1 [Compound 20, 3-chloro-5-(3,5-dichlorophenoxy)-4H--1,2,6-thiadiazin-4-one] | 48% | 74% | 68% | 74% |
